Earlier results, collected in PubChem BioAssay AID1259409 (Chemical Carcinogenesis Research Information System (CCRIS), 2018).

Test system: rodent chemically induced tumor inhibition, incidence and multiplicity
Test: CCRIS tumor inhibitor studies

Q: For `O=c1c(O)c(-c2ccc(O)c(O)c2)oc2cc(O)cc(O)c12`, which “tumour outcome (control, treated, inhibition, significance)” value (Carcinogen: BENZO[A]PYRENE, 50-32-8, Dose [Inhibitor]: 25 MG IN 0.1 ML DMSO 3/WK, ADMINISTERED SIMULTANEOUSLY WITH CARCINOGEN FOR DURATION OF STUDY (STUDY DURATION: 368 D), Route [Inhibitor]: DERMAL, Species: MOUSE, Strain/Sex: ICR/FEMALE, Target Tissue: Type of Lesion: SKIN: PAPILLOMA, Dose [Carcinogen]: 5 UG IN 0.1 ML DMSO THAT ALSO CONTAINED AGENT 3/WK FOR DURATION OF STUDY, Promoter: NONE USED) is on record?
A: The value was 13/50 (26%), 0/50 (0%), 100%, not calculated.

Q: What about the “tumour outcome (control, treated, inhibition, significance)” value (Carcinogen: BENZO[A]PYRENE, 50-32-8, Dose [Inhibitor]: 100 UG IN 0.2 ML ACETONE ONCE 5 MINUTES BEFORE CARCINOGEN TREATMENT (STUDY DURATION: 31 WK), Route [Inhibitor]: DERMAL, Species: MOUSE, Strain/Sex: CD-1/FEMALE, Target Tissue: Type of Lesion: SKIN: PAPILLOMA, Dose [Carcinogen]: 400 NMOL IN 0.2 ML ACETONE ONCE, Promoter: 12-O-TETRADECANOYLPHORBOL-13-ACETATE, 16561-29-8) of the same compound?
A: Its value is 90%, 82%, 9%, not calculated.

Q: And the “tumour outcome (control, treated, inhibition, significance)” value (Carcinogen: DIETHYLNITROSAMINE, 55-18-5, N-METHYLNITROSOUREA, 684-93-5, 1,2-DIMETHYLHYDRAZINE, 540-73-8, N-BUTYL-N-(4-HYDROXYB, Carcinogen: DIETHYLNITROSAMINE, 55-18-5, N-METHYLNITROSOUREA, 684-93-5, 1,2-DIMETHYLHYDRAZINE, 540-73-8, N-BUTYL-N-(4-HYDROXYB, Dose [Inhibitor]: 0, 1% IN DIET FOR 4 WK BEGINNING 1 DAY PRIOR TO CARCINOGEN TREATMENT (STUDY DURATION: 36 WK), Route [Inhibitor]: ORAL, Species: RAT, Strain/Sex: F344/MALE, Target Tissue: Type of Lesion: KIDNEY: ADENOMA, Dose [Carcinogen]: 100 MG/KG DEN ONCE, 20 MG/KG MNU 4 TIMES, 40 MG/KG DMH 4 TIMES, 0.05% BBN IN DRINKING WATER FOR 2 WK, 0.1% DHPN IN D, Dose [Carcinogen]: 100 MG/KG DEN ONCE, 20 MG/KG MNU 4 TIMES, 40 MG/KG DMH 4 TIMES, 0.05% BBN IN DRINKING WATER FOR 2 WK, 0.1% DHPN IN D, Promoter: NONE USED)?
A: Its value is 4/14 (29%), 4/13 (31%), -7%, not significant.

Q: And the “tumour outcome (control, treated, inhibition, significance)” value (Carcinogen: DIETHYLNITROSAMINE, 55-18-5, N-METHYLNITROSOUREA, 684-93-5, 1,2-DIMETHYLHYDRAZINE, 540-73-8, N-BUTYL-N-(4-HYDROXYB, Carcinogen: DIETHYLNITROSAMINE, 55-18-5, N-METHYLNITROSOUREA, 684-93-5, 1,2-DIMETHYLHYDRAZINE, 540-73-8, N-BUTYL-N-(4-HYDROXYB, Dose [Inhibitor]: 0, 1% IN DIET FOR 4 WK BEGINNING 1 DAY PRIOR TO CARCINOGEN TREATMENT (STUDY DURATION: 36 WK), Route [Inhibitor]: ORAL, Species: RAT, Strain/Sex: F344/MALE, Target Tissue: Type of Lesion: KIDNEY: NEPHROBLASTOMA, Dose [Carcinogen]: 100 MG/KG DEN ONCE, 20 MG/KG MNU 4 TIMES, 40 MG/KG DMH 4 TIMES, 0.05% BBN IN DRINKING WATER FOR 2 WK, 0.1% DHPN IN D, Dose [Carcinogen]: 100 MG/KG DEN ONCE, 20 MG/KG MNU 4 TIMES, 40 MG/KG DMH 4 TIMES, 0.05% BBN IN DRINKING WATER FOR 2 WK, 0.1% DHPN IN D, Promoter: NONE USED)?
A: The value was 7/14 (50%), 6/13 (46%), 8%, not significant.

Q: What about the “tumour outcome (control, treated, inhibition, significance)” value (Carcinogen: DIETHYLNITROSAMINE, 55-18-5, N-METHYLNITROSOUREA, 684-93-5, 1,2-DIMETHYLHYDRAZINE, 540-73-8, N-BUTYL-N-(4-HYDROXYB, Carcinogen: DIETHYLNITROSAMINE, 55-18-5, N-METHYLNITROSOUREA, 684-93-5, 1,2-DIMETHYLHYDRAZINE, 540-73-8, N-BUTYL-N-(4-HYDROXYB, Dose [Inhibitor]: 0, 1% IN DIET FOR 4 WK BEGINNING 1 DAY PRIOR TO CARCINOGEN TREATMENT (STUDY DURATION: 36 WK), Route [Inhibitor]: ORAL, Species: RAT, Strain/Sex: F344/MALE, Target Tissue: Type of Lesion: LARGE INTESTINE: ADENOMA, Dose [Carcinogen]: 100 MG/KG DEN ONCE, 20 MG/KG MNU 4 TIMES, 40 MG/KG DMH 4 TIMES, 0.05% BBN IN DRINKING WATER FOR 2 WK, 0.1% DHPN IN D, Dose [Carcinogen]: 100 MG/KG DEN ONCE, 20 MG/KG MNU 4 TIMES, 40 MG/KG DMH 4 TIMES, 0.05% BBN IN DRINKING WATER FOR 2 WK, 0.1% DHPN IN D, Promoter: NONE USED) of the same compound?
A: Its value is 7/14 (50%), 5/13 (38%), 24%, not significant.

Q: What about the “tumour outcome (control, treated, inhibition, significance)” value (Carcinogen: DIETHYLNITROSAMINE, 55-18-5, N-METHYLNITROSOUREA, 684-93-5, 1,2-DIMETHYLHYDRAZINE, 540-73-8, N-BUTYL-N-(4-HYDROXYB, Carcinogen: DIETHYLNITROSAMINE, 55-18-5, N-METHYLNITROSOUREA, 684-93-5, 1,2-DIMETHYLHYDRAZINE, 540-73-8, N-BUTYL-N-(4-HYDROXYB, Dose [Inhibitor]: 0, 1% IN DIET FOR 4 WK BEGINNING 1 DAY PRIOR TO CARCINOGEN TREATMENT (STUDY DURATION: 36 WK), Route [Inhibitor]: ORAL, Species: RAT, Strain/Sex: F344/MALE, Target Tissue: Type of Lesion: LARGE INTESTINE: CARCINOMA, Dose [Carcinogen]: 100 MG/KG DEN ONCE, 20 MG/KG MNU 4 TIMES, 40 MG/KG DMH 4 TIMES, 0.05% BBN IN DRINKING WATER FOR 2 WK, 0.1% DHPN IN D, Dose [Carcinogen]: 100 MG/KG DEN ONCE, 20 MG/KG MNU 4 TIMES, 40 MG/KG DMH 4 TIMES, 0.05% BBN IN DRINKING WATER FOR 2 WK, 0.1% DHPN IN D, Promoter: NONE USED) of the same compound?
A: Its value is 3/14 (21%), 5/13 (38%), -81%, not significant.
